Assay results taken from publication PMC4666645 (PLoS Pathogens, 2015).
Where a name gives a salt, the structure may show the parent alone. Read-outs that look alike come from different tables or passages of the source.

Legend:
Hco-26/27 receptor = Hco-26/27 receptor (Haemonchus contortus, UniProt A9XX30+S4VAP0); test: cell-based
From the text: In order to investigate if the overlapping expression contributed to functional receptors, we co-expressed Hco-ACR-26 and Hco-ACR-27 in Xenopus laevis oocytes. We have previously reported that the functional expression of nematode muscle AChRs in Xenopus oocytes requires the addition of ancillary proteins. Therefore, cRNAs encoding the subunits Hco-ACR-26 and Hco-ACR-27, in combination with three ancillary proteins (Hco-ric-3.1, Hco-unc-74 and Hco-unc-50) were co-injected into Xenopus oocytes. […] Subsequently, different cRNA combinations were injected into Xenopus oocytes in order to determine the minimal subunit combination leading to the expression of a functional receptor and verify the ancillary factor requirement.
The subunit stoichiometry has been previously reported to impact the pharmacological properties of some nematode AChRs expressed in Xenopus oocytes.
H. contortus and P. equorum acr-26 and acr-27 cDNAs were PCR-amplified using primers containing a restriction site in order to be sub-cloned into the expression vector pTB207 that is suitable for in vitro transcription. Primers are listed in S3 Table. The resulting plasmids were linearized with the NheI restriction enzyme (Fermantas) and used as templates for cRNA synthesis using the T7 mMessage mMachine kit (Ambion). Xenopus laevis ovaries were obtained from the University of Rennes, France (CRB Xenope) and defolliculated using 2 mg/ml collagenase type II (Gibco) in the incubation solution containing: 100 mM NaCl, 2 mM KCl, 1.8 mM CaCl2.2H2O, 1 mM MgCl2.6H2O, 5 mM HEPES, 2.5 mM C3H3NaO3, pH 7.5, supplemented with penicillin 100 U/mL and streptomycin 100 μg/mL). The oocytes were injected in the animal pole with a total volume of 36 nL of cRNA mix containing 50 ng/μL of each cRNA in RNase-free water using the Drummond nanoject II microinjector. Microinjected oocytes were kept at 20°C in incubation medium for 4 days to allow the receptors expression. Two-electrode voltage-clamp recordings were carried out using an Oocyte Clamp OC-725C amplifier (Warner instrument) in oocytes being voltage-clamped at -60mV. All agonist preparations were prepared with recording buffer (100 mM NaCl, 2.5 mM KCl, 1 mM CaCl2.2H2O, 5 mM HEPES, pH 7.3). Currents were recorded and analyzed using the pCLAMP 10.4 package (Molecular Devices).

[1] = system: C. elegans expressing Hco-26/27; test: Thrashing assay on transgenic C. elegans expressing Hco-26/27; assay type: in vivo, Caenorhabditis elegans
From the text: (§1) Taking advantage of the absence of acr-26 and acr-27 homologs in the C. elegans genome, we used wild type N2 worms to express these two parasitic nematode AChR subunits. […] For Peq-ACR-26 and Peq-ACR-27, even though the localization of these subunits in Parascaris equorum remains to be investigated in more detail, we also used myo3 as a promoter in order to compare the functional impact of Hco-26/27 and Peq-26/27 on both motility and drug sensitivity in transgenic C. elegans.
(§2) Worms were maintained at 20°C on nematode growth medium (NGM) plates and fed on a bacterial lawn (Escherichia coli OP50). Bristol N2 was used as a reference wild-type C. elegans strain. Dose-response assays were performed on gravid adults placed in wells of a 96-well plate containing M9 salt solution (3 g/L KH2PO4, 6 g/L Na2HPO4, 5 g/L NaCl, and 1 mM MgSO4 with BSA at 0.1%) with varying anthelmintic concentrations. After 10 min, worm thrashing was counted for 1 min. A thrash was defined as a change in the direction of bending at the mid-body to return to the initial position. For each drug concentration, 30 worms were tested. Hco-acr-26, Hco-acr-27, Peq-acr-26 and Peq-acr-27 coding sequences were sub-cloned into the pPD96.52 (Addgene) vector containing the muscle promoter Pmyo3. Primer sequences containing the suitable restriction sites are listed in S3 Table. Extrachromosomal transgenic strains of C. elegans were obtained by micro-injecting DNA into the gonads of young adult hermaphrodite worms as described. N2 worms were injected with different mixes containing Pmyo3::Hco-acr-26; Pmyo3::Hco-acr-27; Pmyo3::Peq-acr-26; Pmyo3::Peq-acr-27 alone or in combination (Pmyo3::Hco-acr-26 + Pmyo3::Hco-acr-27 or Pmyo3::Peq-acr-26 + Pmyo3::Peq-acr-27) with a final concentration of 40 ng/μl for each plasmid. The plasmid pPD118.33_Pmyo2::gfp (Addgene) was co-injected at 25 ng/μl as a transformation marker. […] Thrashes produced by each worm during 1 minute were counted after a 10 minutes equilibration period. After drug application, thrashes were counted after 10, 20 and 30 minutes of exposure. […]

C. elegans N2 = test: Dose-response thrashing assay on wild-type C. elegans N2; assay type: in vivo, Caenorhabditis elegans; settings: for Minimal drug concentration causing significant reduction in wild-type motility: 10 min exposure
Experimental: Worms were maintained at 20°C on nematode growth medium (NGM) plates and fed on a bacterial lawn (Escherichia coli OP50). Bristol N2 was used as a reference wild-type C. elegans strain. Dose-response assays were performed on gravid adults placed in wells of a 96-well plate containing M9 salt solution (3 g/L KH2PO4, 6 g/L Na2HPO4, 5 g/L NaCl, and 1 mM MgSO4 with BSA at 0.1%) with varying anthelmintic concentrations. After 10 min, worm thrashing was counted for 1 min. A thrash was defined as a change in the direction of bending at the mid-body to return to the initial position. For each drug concentration, 30 worms were tested. Hco-acr-26, Hco-acr-27, Peq-acr-26 and Peq-acr-27 coding sequences were sub-cloned into the pPD96.52 (Addgene) vector containing the muscle promoter Pmyo3. Primer sequences containing the suitable restriction sites are listed in S3 Table. Extrachromosomal transgenic strains of C. elegans were obtained by micro-injecting DNA into the gonads of young adult hermaphrodite worms as described. N2 worms were injected with different mixes containing Pmyo3::Hco-acr-26; Pmyo3::Hco-acr-27; Pmyo3::Peq-acr-26; Pmyo3::Peq-acr-27 alone or in combination (Pmyo3::Hco-acr-26 + Pmyo3::Hco-acr-27 or Pmyo3::Peq-acr-26 + Pmyo3::Peq-acr-27) with a final concentration of 40 ng/μl for each plasmid. The plasmid pPD118.33_Pmyo2::gfp (Addgene) was co-injected at 25 ng/μl as a transformation marker. For each mixes, at least two independent lines were generated. For each line, thrashing assays were carried on at least 12 F1-worms carrying the selection marker. L4 larvae from N2 and transformed worms were transferred one day before the thrashing assay on NGM plate. One young adult was placed in each well of a 12-well plate containing M9 salt buffer. Thrashes produced by each worm during 1 minute were counted after a 10 minutes equilibration period. After drug application, thrashes were counted after 10, 20 and 30 minutes of exposure. Experimental data are shown as mean ± SEM. Statistical comparisons were done using the paired or unpaired Student’s t test or one-way ANOVA with Tukey’s multiple comparison test. A level of p<0.05 was considered significant. For each line, expression of the introduced acr-26 and/or acr-27 coding sequences from H. contortus or P. equorum was confirmed by RT-PCR experiments performed on 12 pooled worms. A partial sequence corresponding to the C. elegans endogenous AChR unc-38 transcript was amplified with primers designed on two independent exons in order to control the cDNA template quality. Primer sequences are listed in S3 Table.
Supplementary file ppat.1005267.s004.tif: S4 Fig Thrashing assays performed on C. elegans (N2) with different anthelmintic molecules. […] Thrashes of gravid wild-type adults were counted for one minute after 10 minutes of drug exposure. […] Results are expressed as mean ± SEM derived from three independent sets of experiments. For each treatment, 30 worms were included in the analysis. […] Statistical analyses were performed using a One-Way Anova with Tukey’s Multiple Comparison Test with **p<0.01, ***p<0.001. (TIF) Click here for additional data file.

[2] = system: C. elegans expressing Peq-26/27; test: Thrashing assay on transgenic C. elegans expressing Peq-26/27; assay type: in vivo, Caenorhabditis elegans
From the text: as §1, §2

[3] = read-out: Relative maximal current (Imax) normalized to 100 μM acetylcholine, cRNA ratio 1:1 26/27, 100 μM agonist
[4] = read-out: Relative maximal current (Imax) normalized to 100 μM acetylcholine, cRNA ratio 1:5 26/27, 100 μM agonist
[5] = read-out: Relative maximal current (Imax) normalized to 100 μM acetylcholine, cRNA ratio 5:1 26/27, 100 μM agonist
[6] = Caenorhabditis elegans, 10 min, 10 min drug exposure, gravid adults, read-out: IC50 (reduction of thrashing)
[7] = read-out: Current elicited, % of ACh response, 100 μM agonist, normalized to 100 μM ACh current, equal subunit ratio
[8] = 50 μM Pyr, 10 minutes of drug exposure

Sequence of Hco-26/27 receptor (A9XX30 entry or part of it): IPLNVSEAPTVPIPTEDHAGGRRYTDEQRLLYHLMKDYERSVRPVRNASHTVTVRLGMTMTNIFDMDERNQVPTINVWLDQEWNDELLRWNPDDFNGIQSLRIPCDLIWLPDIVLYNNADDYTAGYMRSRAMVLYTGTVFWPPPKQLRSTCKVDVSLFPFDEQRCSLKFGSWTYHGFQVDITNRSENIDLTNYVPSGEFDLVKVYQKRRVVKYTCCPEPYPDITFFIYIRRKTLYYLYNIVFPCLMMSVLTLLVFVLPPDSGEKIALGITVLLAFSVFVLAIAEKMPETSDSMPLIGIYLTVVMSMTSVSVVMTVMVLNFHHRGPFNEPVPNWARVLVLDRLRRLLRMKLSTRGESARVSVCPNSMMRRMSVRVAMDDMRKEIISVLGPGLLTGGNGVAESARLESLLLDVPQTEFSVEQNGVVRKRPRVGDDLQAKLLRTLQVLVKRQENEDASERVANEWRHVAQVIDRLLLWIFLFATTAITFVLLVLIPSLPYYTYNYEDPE
Sequence of Hco-26/27 receptor (S4VAP0 entry or part of it): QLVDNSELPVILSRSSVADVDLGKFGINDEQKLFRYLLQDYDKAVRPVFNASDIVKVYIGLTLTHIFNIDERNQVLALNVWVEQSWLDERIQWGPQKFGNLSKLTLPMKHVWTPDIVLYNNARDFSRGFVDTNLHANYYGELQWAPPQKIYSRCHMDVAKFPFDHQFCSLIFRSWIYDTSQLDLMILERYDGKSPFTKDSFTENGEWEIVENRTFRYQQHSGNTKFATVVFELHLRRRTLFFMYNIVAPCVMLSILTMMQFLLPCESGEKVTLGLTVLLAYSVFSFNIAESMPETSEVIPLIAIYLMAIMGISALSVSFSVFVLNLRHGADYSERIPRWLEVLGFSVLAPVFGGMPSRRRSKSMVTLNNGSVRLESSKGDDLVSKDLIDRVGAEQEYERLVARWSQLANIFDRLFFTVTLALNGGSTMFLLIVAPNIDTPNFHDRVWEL

SMILES	Current elicited, % of ACh response (Hco-26/27 receptor; 100 μM agonist, normalized to 100 μM ACh current, equal subunit ratio)	Emax at 100 µM (Hco-26/27 receptor; [3]) [%]	Emax at 100 µM (Hco-26/27 receptor; [4]) [%]	Emax at 100 µM (Hco-26/27 receptor; [5]) [%]	Change in sensitivity versus N2 ([1]; 5 μM Lev)	Minimal drug concentration causing significant reduction in wild-type motility (C. elegans N2) [µM]	IC50 (C. elegans N2; [6]) [µM]	Change in sensitivity versus N2 ([2]; 5 μM Lev)	EC50 (Hco-26/27 receptor) [µM]	Imax reduction with fivefold increase of Hco-ACR-27 versus equal subunit ratios (Hco-26/27 receptor; 100 μM, p<0.001) [fold]	Emax at 100 µM (Hco-26/27 receptor; [7]) [%]	Reduction of thrashing motility ([1]; 40 μM Mor, 10 minutes exposure) [%]	IC50 (C. elegans N2; Caenorhabditis elegans, 10 min, read-out: IC50 (reduction of thrashing), 10 min drug exposure, gravid adults) [µM]	IC50 (C. elegans N2; read-out: IC50 (reduction of thrashing), 10 min drug exposure, gravid adults) [µM]	Reduction of thrashing motility ([2]; 40 μM Mor, 10 minutes exposure) [%]	Percentage reduction of thrashes min^-1 [1, 8] [%]	Percentage reduction of thrashes min^-1 [2, 8] [%]
c1ccc([C@H]2CN3CCSC3=N2)cc1 [Lev, (-)-tetramisole hydrochloride]	insensitive	3.46 ± 1.44	4.18 ± 2.89	1.77 ± 1.77	no significant change	5	7 ± 1.1	no significant change									
Cc1ccsc1/C=C/C1=NCCCN1C [Mor, morantel]		249 ± 11.5	137 ± 19.7	265 ± 29.1		40			29 ± 1.3	2	249 ± 11.5	93.3	44 ± 1.03	44.1 ± 1	62.7		
CN1CCCN=C1/C=C/c1cccs1 [Pyr, pyrantel]		81 ± 6.21	83.1 ± 17.9	84.1 ± 8.54		50	107 ± 1.2		6.8 ± 1.3		81 ± 6.21					65.4	61.6
